In PMC11345399 (The Journal of Biological Chemistry, 2024):
Where “and” joins values, the source holds several entries; their conditions need not be identical. Equal values may be shown once. Read-outs that look alike come from different tables or passages of the source. Marks after values point to notes of the source that are not given here.

Experiments:
RSV RdRp complex [1] = target: T1, RSV RdRp complex (Human respiratory syncytial virus A, UniProt P28887)
HPIV-3 RdRp complex = HPIV-3 RdRp complex (Human parainfluenza 3 virus, UniProt P12577)
SARS-CoV RdRp complex = conditions: cited from earlier work
RSV RdRp complex [2] = target: T1, RSV RdRp complex; conditions: cited from earlier work
HMPV RdRp complex = HMPV RdRp complex (Human metapneumovirus, UniProt Q6WB93)
[3] = target: T2, human mitochondrial RNA polymerase (h-mtRNAP) (Homo sapiens, UniProt O00411); conditions: cited from earlier work
T2 sequence (O00411 42-1230 limits assumed): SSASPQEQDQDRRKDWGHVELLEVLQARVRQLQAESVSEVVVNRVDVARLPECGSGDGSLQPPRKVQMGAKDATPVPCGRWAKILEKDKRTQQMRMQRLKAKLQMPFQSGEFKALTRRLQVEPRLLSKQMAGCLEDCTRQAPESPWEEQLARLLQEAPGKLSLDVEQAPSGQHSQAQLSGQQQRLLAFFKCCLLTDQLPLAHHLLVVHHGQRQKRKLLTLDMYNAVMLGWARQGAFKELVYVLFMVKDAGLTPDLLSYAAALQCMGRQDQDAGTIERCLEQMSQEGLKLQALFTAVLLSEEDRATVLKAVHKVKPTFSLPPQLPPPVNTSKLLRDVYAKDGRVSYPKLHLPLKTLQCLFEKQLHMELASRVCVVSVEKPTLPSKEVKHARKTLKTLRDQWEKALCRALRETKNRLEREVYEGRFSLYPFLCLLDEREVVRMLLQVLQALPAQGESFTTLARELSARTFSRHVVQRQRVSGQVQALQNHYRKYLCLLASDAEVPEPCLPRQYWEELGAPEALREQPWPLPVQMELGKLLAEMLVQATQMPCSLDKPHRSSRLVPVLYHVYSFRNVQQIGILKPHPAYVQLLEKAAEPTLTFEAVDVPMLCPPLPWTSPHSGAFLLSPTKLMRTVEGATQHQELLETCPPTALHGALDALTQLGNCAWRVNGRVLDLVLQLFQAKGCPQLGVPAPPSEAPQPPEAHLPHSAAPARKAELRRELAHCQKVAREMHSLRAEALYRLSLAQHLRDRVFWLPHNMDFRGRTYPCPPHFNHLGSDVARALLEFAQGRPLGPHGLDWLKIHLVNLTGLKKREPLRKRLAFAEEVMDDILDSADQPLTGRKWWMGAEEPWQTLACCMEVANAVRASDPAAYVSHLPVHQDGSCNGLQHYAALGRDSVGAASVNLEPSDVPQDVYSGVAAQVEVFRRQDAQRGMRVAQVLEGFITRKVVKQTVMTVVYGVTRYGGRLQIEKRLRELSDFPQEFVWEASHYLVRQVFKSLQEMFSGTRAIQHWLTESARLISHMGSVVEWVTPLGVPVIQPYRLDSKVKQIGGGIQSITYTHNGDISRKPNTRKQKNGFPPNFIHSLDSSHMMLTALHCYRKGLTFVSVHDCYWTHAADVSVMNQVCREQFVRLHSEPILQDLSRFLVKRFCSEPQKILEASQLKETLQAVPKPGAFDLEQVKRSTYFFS

MERS-CoV RdRp complex [4] = target: T3, MERS-CoV RdRp complex (Middle East respiratory syndrome-related coronavirus, UniProt K9N7C7); conditions: cited from earlier work
influenza B RdRp [5] = target: T4, influenza B RdRp (Influenza B virus, UniProt Q5V8Y6); format: biochemical
PIV-5 RdRp complex = PIV-5 RdRp complex (Parainfluenza virus 5, UniProt Q88434)
SARS-CoV-2 RdRp complex [6] = target: T5, SARS-CoV-2 RdRp complex (Severe acute respiratory syndrome coronavirus 2, UniProt P0DTD1); conditions: cited from earlier work; for Km: previously reported
EV-71 RdRp (3Dpol) = EV-71 RdRp (3Dpol) (Enterovirus A71, UniProt E5RPG3)
[7] = target: T2, human mitochondrial RNA polymerase (h-mtRNAP); format: biochemical
influenza B RdRp [8] = target: T4, influenza B RdRp; conditions: cited from earlier work
LASV RdRp [9] = target: T6, LASV RdRp (Mammarenavirus lassaense, UniProt Q6GWS2)
LASV RdRp [10] = target: T6, LASV RdRp; conditions: cited from earlier work
MERS-CoV RdRp complex [11] = target: T3, MERS-CoV RdRp complex
HRV-16 RdRp (3Dpol) = HRV-16 RdRp (3Dpol) (Human rhinovirus 16, UniProt Q82122)
EV-71 RdRp [12] = format: biochemical
HMPV RdRp = HMPV RdRp (Human metapneumovirus, UniProt Q6WB93); format: biochemical
SARS-CoV-2 RdRp = SARS-CoV-2 RdRp (Severe acute respiratory syndrome coronavirus 2, UniProt P0DTD1); format: biochemical
HRV-16 RdRp [13] = target: T7, HRV-16 RdRp (Human rhinovirus 16, UniProt Q82122); format: biochemical
HPIV-3 RdRp = HPIV-3 RdRp (Human parainfluenza 3 virus, UniProt P12577); format: biochemical
MERS-CoV RdRp = MERS-CoV RdRp (Middle East respiratory syndrome-related coronavirus, UniProt K9N7C7); format: biochemical
PIV-5 RdRp = PIV-5 RdRp (Parainfluenza virus 5, UniProt Q88434); format: biochemical
SARS-CoV-2 RdRp complex [14] = target: T5, SARS-CoV-2 RdRp complex
EV-71 RdRp [15] = format: biochemical; remark: listed apart in the source
HRV-16 RdRp [16] = target: T7, HRV-16 RdRp; format: biochemical; remark: listed apart in the source
RSV RdRp = RSV RdRp (Human respiratory syncytial virus A, UniProt P28887); format: biochemical
[17] = tested on: Nc1ncnc2c1ncn2[C@@H]1O[C@H](COP(=O)(O)OP(=O)(O)OP(=O)(O)O)[C@@H](O)[C@H]1O; experiment: purified protein, by the assay type; conditions: pH 8.0
[18] = tested on: N#C[C@@]1(c2ccc3c(N)ncnn23)O[C@H](COP(=O)(O)OP(=O)(O)OP(=O)(O)O)[C@@H](O)[C@H]1O; experiment: purified protein, by the assay type; conditions: pH 8.0
[19] = SARS-CoV-2 RdRp, ref Gordon et al. ([45])

Nc1ncnc2c1ncn2[C@@H]1O[C@H](COP(=O)(O)OP(=O)(O)OP(=O)(O)O)[C@@H](O)[C@H]1O [ATP]
Vmax (product fraction) (RSV RdRp complex [1]): 0.61 ± 0.065
Vmax (product fraction) (HPIV-3 RdRp complex): 0.63 ± 0.025
Km (SARS-CoV RdRp complex): 0.03 ± 0.003 µM
Vmax (product fraction) (SARS-CoV RdRp complex): 0.73 ± 0.017
Km (RSV RdRp complex [2]): 0.17 ± 0.023 µM
Vmax (product fraction) (RSV RdRp complex [2]): 0.76 ± 0.022
Vmax (product fraction) (HMPV RdRp complex): 0.60 ± 0.024 and 0.39 ± 0.028
Km [3]: 0.05 ± 0.0037 µM
Vmax (product fraction) [3]: 0.98 ± 0.018
Km (MERS-CoV RdRp complex [4]): 0.017 ± 0.019 µM
Vmax (product fraction) (MERS-CoV RdRp complex [4]): 0.47 ± 0.011
Vmax (product fraction) (influenza B RdRp [5]): 0.68 ± 0.014
Vmax (product fraction) (PIV-5 RdRp complex): 0.74 ± 0.026
Km (SARS-CoV-2 RdRp complex [6]; [19]): 0.03 ± 0.003 µM
Vmax (product fraction) (EV-71 RdRp (3Dpol)): 0.96 ± 0.021
Km [7]: 0.096 ± 0.0091 µM
Vmax (product fraction) [7]: 0.93 ± 0.026
Vmax (product fraction) (influenza B RdRp [8]): 0.73 ± 0.014
Vmax (product fraction) (LASV RdRp [9]): 0.80 ± 0.0037
Km (LASV RdRp [10]): 0.11 ± 0.02 µM
Vmax (product fraction) (LASV RdRp [10]): 0.57 ± 0.032
Vmax (product fraction) (MERS-CoV RdRp complex [11]): 0.84 ± 0.0090
Vmax (product fraction) (HRV-16 RdRp (3Dpol)): 0.90 ± 0.017

N#C[C@@]1(c2ccc3c(N)ncnn23)O[C@H](COP(=O)(O)OP(=O)(O)OP(=O)(O)O)[C@@H](O)[C@H]1O [GS-443902]
Vmax (product fraction) (RSV RdRp complex [1]): 0.80 ± 0.059
Pattern of inhibition of RNA primer extension after incorporation at position i (EV-71 RdRp [12]): intermediate product at position “i + 3”
Vmax (product fraction) of UTP incorporation at i + 1 (EV-71 RdRp [12]): 0.48 ± 0.005
Selectivity (fold), Vmax/Km ATP over Vmax/Km analog (HPIV-3 RdRp complex): 7.20 fold
Vmax (product fraction) (HPIV-3 RdRp complex): 0.63 ± 0.010 and 0.78 ± 0.012
Vmax (product fraction) of UTP incorporation at i + 1 (HMPV RdRp): 0.28 ± 0.018
Km (SARS-CoV RdRp complex): 0.01 ± 0.0008 µM
Selectivity (fold), Vmax/Km ATP over Vmax/Km analog (SARS-CoV RdRp complex): 0.32 ^d fold
Vmax (product fraction) (SARS-CoV RdRp complex): 0.70 ± 0.015
Selectivity (fold), Vmax/Km ATP over Vmax/Km analog (RSV RdRp complex [2]; RSV RdRp, ref Tchesnokov et al. ([47])): 2.7 fold and 2.73 ^e fold
Km (RSV RdRp complex [2]): 0.5 ± 0.089 µM
Vmax (product fraction) (RSV RdRp complex [2]): 0.82 ± 0.027
Selectivity (fold), Vmax/Km ATP over Vmax/Km analog (HMPV RdRp complex): 6.7 fold and 6.71 fold
Vmax (product fraction) (HMPV RdRp complex): 0.57 ± 0.045 and 0.53 ± 0.027
Km [3]: 21 ± 0.096 µM
Vmax (product fraction) [3]: 0.81 ± 0.013
Selectivity (fold), Vmax/Km ATP over Vmax/Km analog ([3]; h-mtRNAP, ref Tchesnokov et al. ([47])): 503 ^e fold
Km (MERS-CoV RdRp complex [4]): 0.0063 ± 0.0006 µM
Selectivity (fold), Vmax/Km ATP over Vmax/Km analog (MERS-CoV RdRp complex [4]): 0.35 ^d fold
Vmax (product fraction) (MERS-CoV RdRp complex [4]): 0.50 ± 0.012
Vmax (product fraction) (influenza B RdRp [5]): 0.18 ± 0.0057
Selectivity (fold), Vmax/Km ATP over Vmax/Km analog (PIV-5 RdRp complex): 8.3 fold and 8.31 fold
Vmax (product fraction) (PIV-5 RdRp complex): 0.77 ± 0.042 and 0.69 ± 0.013
Pattern of inhibition of RNA primer extension after incorporation at position i (SARS-CoV-2 RdRp): intermediate product at position “i + 3”
Vmax (product fraction) of UTP incorporation at i + 1 (SARS-CoV-2 RdRp): 1.13 ± 0.047
Km (SARS-CoV-2 RdRp complex [6]; [19]): 0.0089 ± 0.002 µM
Selectivity (fold), Vmax/Km ATP over Vmax/Km analog (SARS-CoV-2 RdRp complex [6]; [19]): 0.28 ^d fold
Vmax (product fraction) (SARS-CoV-2 RdRp complex [6]): 0.74 ± 0.023
Vmax (product fraction) (EV-71 RdRp (3Dpol)): 0.93 ± 0.027 and 0.93 ± 0.019
Vmax (product fraction) [7]: 0.67 ± 0.22
Selectivity (fold), Vmax/Km ATP over Vmax/Km analog (influenza B RdRp [8]; FluB RdRp, ref Gordon et al. ([45])): 68 ^d fold
Vmax (product fraction) (influenza B RdRp [8]): 0.45 ± 0.0064
Vmax (product fraction) (LASV RdRp [9]): 0.29 ± 0.091
Km (LASV RdRp [10]): 1.3 ± 0.18 µM
Selectivity (fold), Vmax/Km ATP over Vmax/Km analog (LASV RdRp [10]): 20 ^d fold
Vmax (product fraction) (LASV RdRp [10]): 0.35 ± 0.016
Pattern of inhibition of RNA primer extension after incorporation at position i (HRV-16 RdRp [13]): intermediate product at position “i + 3”
Vmax (product fraction) of UTP incorporation at i + 1 (HRV-16 RdRp [13]): 0.67 ± 0.015
Vmax (product fraction) (MERS-CoV RdRp complex [11]): 0.90 ± 0.012
Vmax (product fraction) of UTP incorporation at i + 1 (HPIV-3 RdRp): 0.58 ± 0.011
Vmax (product fraction) of UTP incorporation at i + 1 (MERS-CoV RdRp): 0.98 ± 0.018
Vmax (product fraction) of UTP incorporation at i + 1 (PIV-5 RdRp): 0.48 ± 0.0089
Vmax (product fraction) (SARS-CoV-2 RdRp complex [14]): 0.88 ± 0.015
Inhibition (fold) of UTP incorporation across embedded analog (EV-71 RdRp [15]): ~16 fold
Inhibition (fold) vs Template A (HRV-16 RdRp [16]): ~8 fold and 7.8 fold
UTP (HRV-16 RdRp [16]): 3.9 µM
Vmax (product fraction) (HRV-16 RdRp (3Dpol)): 0.96 ± 0.015 and 0.80 ± 0.021

AMP
Vmax (product fraction) of UTP incorporation at i + 1 (EV-71 RdRp [12]): 0.65 ± 0.003
Vmax (product fraction) of UTP incorporation at i + 1 (HMPV RdRp): 0.48 ± 0.026
Vmax (product fraction) of UTP incorporation at i + 1 (HRV-16 RdRp [13]): 0.76 ± 0.015
Vmax (product fraction) of UTP incorporation at i + 1 (HPIV-3 RdRp): 0.56 ± 0.0097
Vmax (product fraction) of UTP incorporation at i + 1 (MERS-CoV RdRp): 1.03 ± 0.016
Vmax (product fraction) of UTP incorporation at i + 1 (PIV-5 RdRp): 0.51 ± 0.022
Vmax (product fraction) of UTP incorporation at i + 1 (RSV RdRp): 0.70 ± 0.037

EV-71 RdRp (3Dpol) (Enterovirus A71)
Km [17]: 0.96 ± 0.066 µM
Km [18]: 0.86 ± 0.081 µM

HMPV RdRp complex (Human metapneumovirus CAN97-83)
Km [18]: 42.19 ± 7.79 µM

HPIV-3 RdRp complex (Human parainfluenza 3 virus (strain NIH 47885))
Km [17]: 0.061 ± 0.015 µM
Km [18]: 0.44 ± 0.040 µM

HRV-16 RdRp (3Dpol) (rhinovirus A16)
Km [17]: 4.52 ± 0.31 µM
Km [18]: 4.96 ± 0.27 µM

LASV RdRp (Lassa virus Josiah)
Km [17]: 0.39 ± 0.075 µM

MERS-CoV RdRp complex (Betacoronavirus England 1)
Km [17]: 0.032 ± 0.0014 µM

PIV-5 RdRp complex (Simian virus 5 (strain W3))
Km [17]: 1.5 ± 0.25 µM
Km [18]: 13 ± 2.3 µM

RSV RdRp complex (Human respiratory syncytial virus A2)
Km [17]: 0.97 ± 0.36 µM

SARS-CoV-2 RdRp complex (Severe acute respiratory syndrome coronavirus 2)
Km [17]: 0.057 ± 0.0078 µM
